Experimental data reported in publication PMC12326981, “Novel C5α-substituted carbapenems enhance Mycobacterium abscessus killing via selective target binding and reduced hydrolysis by BlaMab” (Antimicrobial Agents and Chemotherapy, 2025).
Several values for one entry are separate records, joined by “and”; a condition that tells them apart may be missing. Equal values may be shown once.

Assays:
BlaMab = BlaMab (Mycobacteroides abscessus, UniProt B1MCI3); assay: Steady-state kinetics of hydrolysis by BlaMab; type: biochemical, Mycobacterium abscessus; settings: best-fit value (95% confidence interval); MES buffer pH 6.4, room temperature
18 clinical isolates = assay: MIC distribution against 18 clinical isolates (and Mab ATCC 19977); type: cell-based, Mycobacterium abscessus; settings: single agent, 18 clinical isolates (Fig. 3 also Mab ATCC 19977)
Text: We investigated the effect of C5α-substituted carbapenems (C5α-methyl, JDB/NA-1-157 or 10a and C5α-ethyl, JDB/NA-1-208, or 10b) against Mab strain ATCC 19977, which produces BlaMab, alongside 18 clinical isolates obtained from de-identified patients. These clinical isolates were sourced from National Jewish Health, University Hospitals Cleveland Medical Center, and Cleveland MetroHealth. The strains were utilized for MIC assays and static drug concentration time-kill (SCTK) experiments. Two C5α-substituted carbapenems were designed and synthesized in the Buynak lab at SMU ([31]). The active forms of cefuroxime salts, imipenem, amoxicillin, sulbactam, and avibactam were purchased from AchemBlock, while durlobactam was provided by Innoviva Specialty Therapeutics. All β-lactams and BLIs were prepared in sterile distilled water and subsequently filter-sterilized using a 0.22 µm polyethersulfone syringe filter.
MICs were determined in duplicate following Clinical Laboratory Standards Institute ([52]) guidelines using Middlebrook 7H9 broth supplemented with 10% (vol/vol) oleic acid-albumin-dextrose-catalase (OADC) and 0.05% (vol/vol) Tween 80, with an inoculum of 5 × 10⁵ CFU/mL. […]

LDT5 = LDT5 (Mycobacteroides abscessus, UniProt B1MHQ4); assay: Apparent inhibition constant (nitrocefin, Dixon plot); type: biochemical, Mycobacterium abscessus; settings: read-out: Ki,app
Experimental: Steady-state kinetic studies with JDB/NA-1-157 and JDB/NA-1-208 were performed using purified LDTs and PBPs, including LDT1–5, PBP-B, PBP-lipo, and D,D-carboxypeptidase. The assays were conducted on a BioTek Synergy2 multimode reader equipped with Gen5 software. To determine the Michaelis constant (Km^NCF) for each LDT and PBP, a wide range of NCF concentrations was tested, while the enzyme concentrations were fixed. Absorbance changes at 482 nm were monitored over 10 min. Steady-state kinetic parameters (Vmax and Km) were derived by fitting the experimental data to the Henri–Michaelis–Menten equation using nonlinear least-squares regression in GraphPad Prism version 9. The reaction velocity (v) at a given substrate concentration ([S]) was calculated using equation 2: […]
The apparent inhibition constants (Ki,app) for JDB/NA-1-157 and JDB/NA-1-208 were determined under the following conditions: an NCF concentration of 5 × Km, fixed concentrations of LDT or PBP enzymes, and varying concentrations of JDB/NA-1-157 and JDB/NA-1-208. Absorbance changes at 482 nm were monitored over a 30 min period for each inhibitor concentration. The data were linearized using a Dixon plot, which involves plotting the reciprocal of the absorbance change (1/ΔA) against the concentrations of JDB/NA-1-157 or JDB/NA-1-208. Apparent Ki,app values were derived from the intersection points on the Dixon plot and were subsequently corrected for substrate concentration and enzyme affinity using equation 3:
(3) Ki,app=observed Ki,app/1+[NCF]/Km NCF.

Chain of LDT5 (B1MHQ4 entry or part of it): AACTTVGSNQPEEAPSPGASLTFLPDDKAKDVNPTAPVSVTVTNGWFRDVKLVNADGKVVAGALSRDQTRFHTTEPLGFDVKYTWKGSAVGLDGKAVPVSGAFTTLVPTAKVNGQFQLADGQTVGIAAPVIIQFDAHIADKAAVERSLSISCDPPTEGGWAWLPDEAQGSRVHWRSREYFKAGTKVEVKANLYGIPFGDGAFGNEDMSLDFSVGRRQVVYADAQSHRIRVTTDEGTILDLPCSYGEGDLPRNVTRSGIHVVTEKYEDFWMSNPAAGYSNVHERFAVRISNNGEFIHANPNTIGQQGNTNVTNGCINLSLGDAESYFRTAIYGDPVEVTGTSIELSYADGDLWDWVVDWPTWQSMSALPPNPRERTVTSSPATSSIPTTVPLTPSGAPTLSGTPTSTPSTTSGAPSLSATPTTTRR
Chain of BlaMab (B1MCI3 entry or part of it): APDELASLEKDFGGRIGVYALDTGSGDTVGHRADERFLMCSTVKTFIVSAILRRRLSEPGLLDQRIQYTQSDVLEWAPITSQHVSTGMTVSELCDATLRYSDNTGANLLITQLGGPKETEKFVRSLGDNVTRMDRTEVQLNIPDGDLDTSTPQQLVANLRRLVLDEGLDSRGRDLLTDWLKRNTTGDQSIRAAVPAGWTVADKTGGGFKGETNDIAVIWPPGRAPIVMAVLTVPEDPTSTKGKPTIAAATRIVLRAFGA

Structure (SMILES)	kcat (BlaMab)	MIC range (18 clinical isolates)	Ki (LDT5)
C[C@@H](O)[C@H]1C(=O)N2C(C(=O)O)=C(S[C@@H]3CN[C@H](C(=O)N(C)C)C3)C[C@]12C [JDB/NA-1-157]	0.03 s⁻¹	0.125 to 8.0 mg/L and 0.125 to 8 mg/L	–
CC[C@]12CC(S[C@@H]3CN[C@H](C(=O)N(C)C)C3)=C(C(=O)O)N1C(=O)[C@@H]2[C@@H](C)O [JDB/NA-1-208]	–	–	28.9 µM
